Reference: article PMC9696794, “Synthesis and Antimicrobial Activity of Short Analogues of the Marine Antimicrobial Peptide Turgencin A: Effects of SAR Optimizations, Cys-Cys Cyclization and Lipopeptide Modifications” (International Journal of Molecular Sciences, 2022)
Values after ≈ are worked out from the molar mass of the structure shown. Where a SMILES comes first, the peptide text is derived from it. The star is where a group is joined. Lauroyl = CCCCCCCCCCCC(=O)*; Decanoyl = CCCCCCCCCC(=O)*

Tests used:
E. coli (Ec, ATCC 25922) = assay: microbe, parasite or virus in culture; assay type: cell-based, Escherichia coli; details: for Antimicrobial Activity (MIC) Gram − Ec: ATCC 25922, 24 h
Description: (§1) All cyclic and linear peptides were screened for antibacterial activity against four Gram-positive strains: B. subtilis (Bs, ATCC 23857), C. glutamicum (Cg, ATCC 13032), S. aureus (Sa, ATCC 9144) and S. epidermidis RP62A (Se, ATCC 35984), and two Gram-negative strains: E. coli (Ec, ATCC 25922) and P. aeruginosa (Pa, ATCC 27853). The activity was assessed using a broth microdilution assay according to a modified CLSI-based method. Briefly, overnight bacterial cultures were grown in Mueller–Hinton (MH) broth medium (Difco Laboratories, Detroit, MI, USA) for 2 h at room temperature. The optical density (OD600) was measured, and the bacterial suspensions were adjusted to 2.5–3 × 10^4 CFU/mL in MH medium. The bacterial suspension (50 µL) was distributed in 96-well plates (Nunc, Roskilde, Denmark) preloaded with two-fold dilution series (256 to 1 µg/mL) of peptide solutions (50 µL), giving a final well volume of 100 µL. The microplates were incubated in an EnVision 2103 microplate reader (PerkinElmer, Llantrisant, UK) at 35 °C, with OD595 recorded every hour for 24 h. MIC was defined as the lowest concentration of peptides showing an optical density less than 10% of the negative (growth) control, consisting of bacterial suspension and water. Polymyxin B sulfate (Sigma-Aldrich, St. Louis, MO, USA) and chlorhexidine acetate (CHX, Fresenius Kabi, Halden, Norway), both with concentrations ranging from 12.5 to 0.09 μg/mL, served as positive (growth inhibition) controls. All peptides were tested in triplicate.

[1] = tested on: E. coli MC4100 (wild type, WT); assay: microbe, parasite or virus in culture; details: Escherichia coli, read-out: MIC E. coli MC4100 (WT)
Description: as §1
MIC values were determined for all cyclic peptides against two E. coli strains: wild type (WT) MC4100 and the hyperpermeable variant NR698, having a deficient outer membrane. The NR698 strain, containing lptD4213/imp4213 mutation, was kindly provided by M. Grabowicz (Emory University School of Medicine, Rollins Research Center, Atlanta, GA, USA). The assay was performed in the same way as previously described for the antibacterial MIC assay.

[2] = tested on: B. subtilis (Bs, ATCC 23857); assay: microbe, parasite or virus in culture; assay type: cell-based, Bacillus subtilis; details: ATCC 23857, 24 h
Description: as §1

[3] = tested on: C. glutamicum (Cg, ATCC 13032); assay: microbe, parasite or virus in culture; assay type: cell-based, Corynebacterium glutamicum; details: ATCC 13032, 24 h
Description: as §1

[4] = tested on: S. aureus (Sa, ATCC 9144); assay: microbe, parasite or virus in culture; assay type: cell-based, Staphylococcus aureus; details: ATCC 9144, 24 h
Description: as §1

[5] = tested on: S. epidermidis RP62A (Se, ATCC 35984); assay: microbe, parasite or virus in culture; assay type: cell-based, Staphylococcus epidermidis; details: ATCC 35984, 24 h
Description: as §1

[6] = tested on: P. aeruginosa (Pa, ATCC 27853); assay: microbe, parasite or virus in culture; assay type: cell-based, Pseudomonas aeruginosa; details: ATCC 27853, 24 h
Description: as §1

all bacterial strains = assay: Antibacterial MIC assay, all bacterial strains together (range or geometric mean); assay type: cell-based; details: for GM (geometric mean of the MIC values against all bacterial strains): Table 1, six bacterial strains; for GM of MIC Tot. bact.: Table S3, all bacterial test strains, MIC >256 set to 256
Description: The selectivity index (SI) of the peptides towards bacteria over eukaryotic cells was calculated using the geometric mean (GM) of the MIC values against all bacterial test strains, according to the method by Orlov et al.. The SI for each peptide was determined as the ratio of the RBC-EC50 value by the corresponding GM value. Larger SI values indicate greater selectivity for microbial cells. […] In general, the SI was higher against the Gram-positive bacteral strains than the Gram-negative strains. (Table S3). Overall, peptides displaying EC50 < 100 µg/mL were considered too haemolytic to be of interest for further exploration.
as §1

A. pullulans (Ap) = assay: microbe, parasite or virus in culture; assay type: cell-based, Aurobasidium pollulans; details: 48 h
Description: (§2) The synthesized peptides were screened for antifungal activity against the molds A. pullulans (Ap) and Rhodotorula sp. (Rh) (both obtained from Professor Arne Tronsmo, The Norwegian University of Life Sciences, Ås, Norway) and the yeast C. albicans (Ca, ATCC 10231) as previously described. In short, fungal spores were grown in potato dextrose broth media (Difco) containing 2% D(+)-glucose (Merck, Darmstadt, Germany) at 25–30 °C while shaking at 200 rpm overnight. The cultures were diluted with a dextrose media containing glucose to a concentration of approx. 4 × 10^5 spores/mL. Aliquots of the cultures (50 µL) were transferred to 96 well microtiter plates preloaded with the synthetic peptides (50 µL) in two-fold serial dilutions (256 to 1 µg/mL). Polymyxin B and CHX (both with concentrations ranging from 12.5 to 0.09 μg/mL) served as positive antibiotic controls. The microtiter plates containing the fungal spores and the test peptides were incubated at room temperature for 48 h and OD600 was recorded using a Synergy H1 Hybrid microplate reader system (BioTek, Winooski, VT, USA). MIC was defined as the lowest peptide concentration showing an optical density less than 10% of the negative (growth) control. All experiments were performed in triplicate.

[7] = tested on: C. albicans (Ca, ATCC 10231); assay: microbe, parasite or virus in culture; assay type: cell-based, Candida albicans; details: ATCC 10231, 48 h
Description: as §2

Rhodotorula sp. (Rh) = assay: microbe, parasite or virus in culture; assay type: cell-based; details: 48 h
Description: as §2

[8] = tested on: human red blood cells (RBC); assay: Haemolytic activity assay; assay type: cell-based; details: for Selectivity index (SI) G- / Selectivity index (SI) G+ / Selectivity index (SI) Fungi: Table S3, highest tested concentration used where EC50 above it; for Selectivity index (SI) G-: EC50/GM of Gram-negative strains; for Selectivity index (SI) G+: EC50/GM of Gram-positive strains; for Selectivity index (SI) Fungi: EC50/GM of fungi; for SI (selectivity index = EC50/GM): haemolytic EC50 over GM of MIC against all bacterial strains, Table 1
Description: The synthetized lipopeptides were screened for haemolytic activity against human red blood cells (RBC), in concentrations ranging from 500 to 3.9 μM, following a previously described protocol. In brief, haemolysis was determined using a heparinizied (10 IU/mL) fraction of freshly drawn human blood. A second fraction of blood, which was collected in test tubes containing ethylenediaminetetraacetic acid (EDTA, Vacutest, KIMA, Arzergrande, Italy), was used for determination of the hematocrit (hct). Plasma was removed from heparinized blood by washing three times with prewarmed phosphate-buffered saline (PBS) before being adjusted to a hematocrit of 4%. Peptides dissolved in dimethyl sulfoxide (DMSO) were further diluted with PBS to a final DMSO content of ≤1%. Triton X-100 (Sigma-Aldrich, St. Louis, MO, USA), used at a final concentration of 0.1%, served as a positive control for 100% haemolysis, whereas 1% DMSO in PBS buffer served as a negative control where no toxicity was detected. Duplicates of test solutions and erythrocytes, with 1% hct final concentration, were prepared in a 96-well polypropylene V-bottom plate (Nunc, Fischer scientific, Oslo, Norway). They were incubated under agitation at 37 °C and 800 rpm for 1 h. After centrifugation (5 min, 3000× g), 100 µL from each well were transferred to a flat-bottomed 96-well plate and absorbance was measured at 545 nm with a microplate reader (SpectraMax 190, Molecular Devices, San Jose, CA, USA). After subtracting PBS background, the percentage of haemolysis was calculated as the ratio of the absorbance in the peptide-treated and surfactant-treated samples. Three independent experiments were performed, and EC50 (the concentration giving 50% haemolysis) values are presented as averages.

[9] = tested on: Gram-positive bacterial strains; details: for GM of MIC G+: Table S3, MIC >256 set to 256
Description: as §1

[10] = tested on: Gram-negative bacterial strains (E. coli and P. aeruginosa); assay: Antibacterial MIC assay, Gram-negative strains together (range or geometric mean); assay type: cell-based; details: Table S3; MIC >256 set to 256
Description: as §1

[11] = tested on: fungi (A. pullulans, C. albicans, Rhodotorula sp.); assay: Antifungal MIC assay, all fungi together (range or geometric mean); assay type: cell-based; details: Table S3; MIC >128 set to 128
Description: as §2

SMILES | Antimicrobial Activity (MIC) Gram + Bs [2] [µg/mL] | Antimicrobial Activity (MIC) Gram + Cg [3] [µg/mL] | Antimicrobial Activity (MIC) Gram + Sa [4] [µg/mL] | Antimicrobial Activity (MIC) Gram + Se [5] [µg/mL] | Antimicrobial Activity (MIC) Gram − Ec (E. coli (Ec, ATCC 25922)) [µg/mL] | Antimicrobial Activity (MIC) Gram − Pa [6] [µg/mL] | GM (geometric mean of the MIC values against all bacterial strains) (all bacterial strains) [µg/mL] | GM of MIC Tot. bact. (all bacterial strains) [µg/mL] | Antimicrobial Activity (MIC) Fungi Ap (A. pullulans (Ap)) [µg/mL] | Antimicrobial Activity (MIC) Fungi Ca [7] [µg/mL] | Antimicrobial Activity (MIC) Fungi Rh (Rhodotorula sp. (Rh)) [µg/mL] | Selectivity index (SI) G- [8] | Selectivity index (SI) G+ [8] | Selectivity index (SI) Fungi [8] | SI (selectivity index = EC50/GM) [8] | GM of MIC G+ [9] [µg/mL] | GM of MIC G- [10] [µg/mL] | GM of MIC Fungi [11] [µg/mL] | further results
CC1(C)S[C@@H]2[C@H](NC(=O)[C@H](N)c3ccccc3)C(=O)N2[C@H]1C(=O)O [Ampicillin, reference compound] | – | – | – | – | – | – | – | – | – | – | – | – | – | – | – | – | – | – | MIC (E. coli (Ec, ATCC 25922); Escherichia coli, ATCC25922, Table 2, laboratory strain, read-out: MIC E. coli ATCC 25922 (from Table 1)): 8 µg/mL (≈ 22.9 µM); MIC [1]: 8 µg/mL (≈ 22.9 µM)
CCCCCCCCCC(=O)N[C@@H](CS)C(=O)NCC(=O)N[C@@H](CCCCN)C(=O)N[C@@H](CCCCN)C(=O)N[C@@H](Cc1c[nH]c2ccccc12)C(=O)N[C@@H](Cc1c[nH]c2ccccc12)C(=O)NCC(=O)N[C@@H](Cc1c[nH]c2ccccc12)C(=O)N[C@@H](CCCCN)C(=O)N[C@@H](CS)C(=O)N[C@@H](CCCCN)C(=O)N[C@@H](CC(C)C)C(N)=O [Peptide C10-Turg-2, C10- CGKKWWGWKC KL-NH2] (Decanoyl-CGKKWWGWKCKL-NH2) | 8 | 4 | 8 | 8 | 8 | 16 | 8 | 8 | 32 | 64 | 32 | 6 | 10 | 2 | 8 | 7 | 11 | 40 | MIC against the Gram-positive bacterial strains ([9]; 2 h): 4 to 8 µg/mL
CCCCCCCCCCCC(=O)N[C@@H](CS)C(=O)NCC(=O)N[C@@H](CCCCN)C(=O)N[C@@H](CCCCN)C(=O)N1CCC[C@H]1C(=O)NCC(=O)NCC(=O)N[C@@H](Cc1c[nH]c2ccccc12)C(=O)N[C@@H](CCCCN)C(=O)N[C@@H](CS)C(=O)N[C@@H](CCCCN)C(=O)N[C@@H](CC(C)C)C(N)=O [Peptide C12-Turg-1, C12- CGKKPGGWKC KL-NH2] (Lauroyl-CGKKPGGWKCKL-NH2) | 4 | 4 | 8 | 4 | 8 | 16 | 6 | 6 | 32 | 64 | 8 | > 86 | > 204 | > 38 | – | 5 | 11 | 25 | RBC Tox. (EC50), haemolytic activity ([8]; human RBC, 1 h, 37 °C, concentration giving 50% haemolysis): >971 µg/mL
CCCCCCCCCCCC(=O)N[C@@H](CS)C(=O)NCC(=O)N[C@@H](CCCCN)C(=O)N[C@@H](CCCCN)C(=O)N[C@@H](Cc1c[nH]c2ccccc12)C(=O)N[C@@H](Cc1c[nH]c2ccccc12)C(=O)NCC(=O)N[C@@H](Cc1c[nH]c2ccccc12)C(=O)N[C@@H](CCCCN)C(=O)N[C@@H](CS)C(=O)N[C@@H](CCCCN)C(=O)N[C@@H](CC(C)C)C(N)=O [Peptide C12-Turg-2, C12- CGKKWWGWKC KL-NH2] (Lauroyl-CGKKWWGWKCKL-NH2) | 8 | 16 | 16 | 8 | 16 | 32 | 14 | 14 | 32 | 64 | 32 | 2 | 5 | 1 | 4 | 11 | 23 | 40 | –
